Source: the NIST ThermoML archive (doi:10.1016/j.jct.2007.05.015)

Legend:
[1] = 298.15 K; 101 kPa; Liquid
[2] = xn = mol fraction of the nth substance listed; conditions: 298.15 K, 101 kPa, Liquid

O=C1CCCN1 [2-pyrrolidinone]
[1]
Conditions	mass density [kg/m3]	speed of sound [m/s]
–	1107.52	1633.7

O=C1CCCN1 [2-pyrrolidinone] + O
[2]
Conditions	mass density [kg/m3]	speed of sound [m/s]
x1 = 0.03793	1015.26	1577.4
x1 = 0.05001	1020.61	1597.6
x1 = 0.07966	1032.48	1632.1
x1 = 0.1093	1042.93	1670
x1 = 0.122	1046.78	1684.5
x1 = 0.1582	1056.77	1708
x1 = 0.1789	1062.24	1716.5
x1 = 0.2155	1070.34	1726.6
x1 = 0.2352	1074.91	1732.1
x1 = 0.2473	1077.08	1735.2
x1 = 0.2794	1081.92	1737.3
x1 = 0.3497	1088.62	1735.5
x1 = 0.4199	1093.46	1727.8
x1 = 0.5013	1097.41	1715.8
x1 = 0.549	1099.18	1708.8
x1 = 0.6133	1101.6	1698.7
x1 = 0.6705	1102.82	1683.4
x1 = 0.7037	1103.16	1678.5
x1 = 0.8117	1105.88	1658
x1 = 0.8353	1106.12	1654.6
x1 = 0.8593	1106.38	1651.3
x1 = 0.8813	1106.59	1647.9
x1 = 0.9413	1107.13	1640.7
x1 = 1	1107.52	1633.7

CC(=O)N(C)C [N,N-dimethylethanamide]
[1]
Conditions	mass density [kg/m3]	speed of sound [m/s]
–	936.34	1455.9

CC(=O)N(C)C [N,N-dimethylethanamide] + O
[2]
Conditions	mass density [kg/m3]	speed of sound [m/s]
x1 = 0.00083	996.94	1499.8
x1 = 0.00163	996.87	1502.4
x1 = 0.03959	995.84	1616.2
x1 = 0.055	996.37	1645.5
x1 = 0.06456	996.62	1663.2
x1 = 0.08126	997.29	1678.6
x1 = 0.1	997.94	1700.3
x1 = 0.1208	998.5	1717.9
x1 = 0.1447	998.68	1730.7
x1 = 0.1714	998.55	1737.9
x1 = 0.2012	997.61	1749.4
x1 = 0.2381	995.72	1734.5
x1 = 0.2761	992.03	1719.7
x1 = 0.3245	988.32	1703.6
x1 = 0.3783	985.12	1682.1
x1 = 0.4137	982.41	1669
x1 = 0.452	979.26	1653.4
x1 = 0.4832	975.57	1638.2
x1 = 0.5372	969.73	1605.4
x1 = 0.583	965.29	1586.8
x1 = 0.6496	959.34	1559.2
x1 = 0.7074	953.42	1534.2
x1 = 0.7633	949.72	1522
x1 = 0.8342	946.12	1489
x1 = 0.9053	940.96	1482.2
x1 = 1	936.34	1455.9

CNC=O [N-methylformamide]
[1]
Conditions	mass density [kg/m3]	speed of sound [m/s]
–	999.06	1431.9

CNC=O [N-methylformamide] + O
[2]
Conditions	mass density [kg/m3]	speed of sound [m/s]
x1 = 0.01572	999.1	1518.7
x1 = 0.03276	1001.38	1538.8
x1 = 0.05095	1003.6	1557.2
x1 = 0.07104	1005.91	1574.1
x1 = 0.09226	1007.87	1582.7
x1 = 0.1156	1010.1	1591.3
x1 = 0.141	1011.91	1601.6
x1 = 0.1714	1013.58	1606.1
x1 = 0.2005	1014.89	1606.2
x1 = 0.2339	1015.73	1603.4
x1 = 0.2714	1016.31	1598.8
x1 = 0.3047	1016.34	1594
x1 = 0.3185	1016.28	1589.3
x1 = 0.3367	1016.3	1583.7
x1 = 0.3615	1015.86	1573
x1 = 0.3853	1015.45	1560.7
x1 = 0.4166	1014.47	1551.9
x1 = 0.4456	1013.64	1542.9
x1 = 0.4785	1012.83	1534.2
x1 = 0.5109	1011.92	1526.4
x1 = 0.5497	1010.88	1514.7
x1 = 0.5805	1010.04	1507.5
x1 = 0.5913	1009.49	1502.6
x1 = 0.6164	1008.9	1497.2
x1 = 0.6335	1008.22	1493.1
x1 = 0.681	1006.72	1480.6
x1 = 0.7323	1005.35	1469
x1 = 0.779	1004.51	1462.9
x1 = 0.8279	1003.34	1454.5
x1 = 0.8535	1002.54	1449.5
x1 = 0.8763	1001.72	1446.5
x1 = 0.917	1001.03	1441.1
x1 = 0.9285	1000.72	1440.2
x1 = 1	999.06	1431.9

CN1CCCC1=O [N-methylpyrrolidone]
[1]
Conditions	mass density [kg/m3]	speed of sound [m/s]
–	1028.23	1531.5
